Legend:
[1] = molecular target: HA-GST-Rheb (GTP-γ-S loaded) activating mTORC1 (Homo sapiens (Human), UniProt Q15382); assay: Rheb-dependent in vitro kinase assay (Rheb-IVK; LanthaScreen or Western readout); format: biochemical; conditions: Rheb-dependent in vitro kinase assay; read-out: IVK IC50
Rheb = Rheb (Homo sapiens (Human), UniProt Q15382); assay: Affinity Selection Mass Spectrometry (ASMS); format: binding; conditions: affinity (R3/R0) in Affinity Selection Mass Spectrometry assay
Procedure, shortened: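 Affinity selection used 2 μM compound with 60 μM Rheb and 180 μM GDP for 30 min at room temperature. After 10 kDa ultrafiltration washes, protein was denatured in MeCN and bound compound quantified by C18 UPLC with Q-TOF MS, against a no-protein control.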

Chain of HA-GST-Rheb (GTP-γ-S loaded) activating mTORC1 (Q15382 1-181): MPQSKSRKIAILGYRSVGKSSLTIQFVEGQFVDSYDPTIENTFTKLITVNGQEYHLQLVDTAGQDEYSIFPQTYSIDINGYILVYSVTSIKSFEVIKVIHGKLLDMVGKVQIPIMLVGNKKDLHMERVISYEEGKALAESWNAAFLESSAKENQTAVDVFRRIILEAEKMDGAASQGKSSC
Chain of Rheb (Q15382 1-169 limits assumed): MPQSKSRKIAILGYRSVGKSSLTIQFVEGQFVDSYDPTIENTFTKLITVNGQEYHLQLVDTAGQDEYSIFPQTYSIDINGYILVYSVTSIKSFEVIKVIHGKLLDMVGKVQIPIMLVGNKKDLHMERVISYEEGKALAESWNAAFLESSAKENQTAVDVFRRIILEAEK

IC50 [1] | Compound | ASMS (R3/R0) (Rheb)
10 to 100 µM | O=C(O)Cn1ccc2c(Oc3cc(Cl)ccc3Cl)cc(Cl)cc21 [I-158, 2-(6-Chloro-4-(2,5-dichlorophenoxy)-1H-indol-1-yl)acetic acid] | B (an affinity (R3/R0) between 100% and 20%)
> 100 µM | NC(=O)C1CCCN(C(=O)c2cc3c(Sc4ccc(Cl)cc4)cc(Cl)cc3[nH]2)C1 (centres unmarked) [I-132] | B (an affinity (R3/R0) between 100% and 20%)
10 to 100 µM | CC(=O)N[C@@H]1CCCC[C@@H]1COc1c(Cl)c(Cl)cc2[nH]c(CO)nc12 (racemic) [I-369] | C (an affinity (R3/R0)<20%)
10 to 100 µM | OCc1cc2c(Cl)cc(Oc3ccccc3)cc2[nH]1 [I-252, (4-chloro-6-phenoxy-1H-indol-2-yl)methanol] | B (an affinity (R3/R0) between 100% and 20%)
> 100 µM | Cn1ccc2c(OC3CCNCC3)cccc21 [I-295] | C (an affinity (R3/R0)<20%)
10 to 100 µM | Clc1ccc(Oc2cccc3[nH]ccc23)c(Cl)c1 [I-255, 4-(2,4-Dichlorophenoxy)-1H-indole] | B (an affinity (R3/R0) between 100% and 20%)
> 100 µM | OCc1nc2c(OCC3COCC3O)c(Cl)c(Cl)cc2[nH]1 (centres unmarked) [I-381] | C (an affinity (R3/R0)<20%)
10 to 100 µM | COC(=O)c1ccc(-c2nc3cc(Cl)c(Cl)cc3[nH]2)cc1 [I-363, methyl 4-(5,6-dichloro-1H-benzo[d]imidazol-2-yl)benzoate] | A (an affinity (R3/R0)>100%)
> 100 µM | Clc1cc2nc(-c3cccnc3)[nH]c2c(Cl)c1Cl [I-355] | B (an affinity (R3/R0) between 100% and 20%)
> 100 µM | COc1cccc(CCNC(=O)c2cc3c(Sc4ccc(Cl)cc4)cc(Cl)cc3[nH]2)c1 [I-144] | B (an affinity (R3/R0) between 100% and 20%)
> 3 µM | O=C(NC1CCN(Cc2ccccc2)CC1)c1cc2c(Sc3ccc(Cl)cc3Cl)cc(Cl)cc2[nH]1 [I-117] | C (an affinity (R3/R0)<20%)
10 to 100 µM | OCc1cc2c(Sc3ccc4ccccc4c3)cc(Cl)cc2[nH]1 [I-134, (6-chloro-4-(naphthalen-2-ylthio)-1H-indol-2-yl)methanol] | B (an affinity (R3/R0) between 100% and 20%)
< 10 µM | O=C(Nc1ccc(-c2cnco2)cc1)c1cc2c(Sc3ccc(Cl)cc3)cc(Cl)cc2[nH]1 [I-128, 6-chloro-4-(4-chlorophenylthio)-N-(4-(oxazol-5-yl)phenyl)-1H-indole-2-carboxamide] | A (an affinity (R3/R0)>100%)
10 to 100 µM | OCC(O)c1nc2c(OCC3CCCCC3)c(Cl)c(Cl)cc2[nH]1 (centres unmarked) [I-325, 1-(5,6-dichloro-4-(cyclohexylmethoxy)-1H-benzo[d]imidazol-2-yl)ethane-1,2-diol] | B (an affinity (R3/R0) between 100% and 20%)
> 100 µM | OCc1ccc(Cn2c(CO)cc3c(Br)cc(Oc4ccccc4)cc32)cc1 [I-166] | B (an affinity (R3/R0) between 100% and 20%)
> 100 µM | CS(=O)(=O)CCNC(=O)c1cc2c(Sc3ccc(Cl)cc3)cc(Cl)cc2[nH]1 [I-137] | A (an affinity (R3/R0)>100%)
> 3 µM | Clc1ccc(Sc2cc(Cl)cc3[nH]c(-c4c[nH]c5ncccc45)nc23)cc1 [I-339, 6-chloro-4-(4-chlorophenylthio)-2-(1H-pyrrolo[2,3-b]pyridin-3-yl)-1H-benzo[d]imidazole] | B (an affinity (R3/R0) between 100% and 20%)

More lines, now with the values behind:

Compound | IC50 [1] | ASMS (R3/R0) (Rheb)
CC(C)(C)OC(=O)N1CCN(C(=O)c2ccc(Cn3c(C(=O)O)cc4c(Br)cc(Sc5ccc(Cl)c(Cl)c5)cc43)cc2)CC1 [I-44] | > 100 µM | B (an affinity (R3/R0) between 100% and 20%)
O=S(=O)(c1cccnc1)n1ccc2c(Sc3ccc(Cl)cc3)cc(Cl)cc21 [I-107] | > 100 µM | C (an affinity (R3/R0)<20%)
CN1CCC(CCNC(=O)c2cc3c(Br)cc(Sc4ccc(Cl)c(Cl)c4)cc3n2Cc2ccc(C(=O)OC(C)(C)C)cc2)CC1 [I-110] | > 100 µM | C (an affinity (R3/R0)<20%)
CN1CCN(c2ccc(NC(=O)c3cc4c(Sc5ccc(Cl)cc5Cl)cc(Cl)cc4[nH]3)cc2C#N)CC1 [I-112, 6-chloro-N-(3-cyano-4-(4-methylpiperazin-1-yl)phenyl)-4-(2,4-dichlorophenylthio)-1H-indole-2-carboxamide] | < 10 µM | C (an affinity (R3/R0)<20%)
5,6-dichloro-4-(4-chlorobenzyloxy)-1H-benzo[d]imidazole-2-carboxylic acid [I-330] | > 100 µM | B (an affinity (R3/R0) between 100% and 20%)
CC(C)(C)OC(=O)c1ccc(Cn2c(C(=O)O)cc3c(Br)cc(Oc4ccccc4)cc32)cc1 [I-167, 4-bromo-1-(4-(tert-butoxycarbonyl)benzyl)-6-phenoxy-1H-indole-2-carboxylic acid] | < 10 µM | B (an affinity (R3/R0) between 100% and 20%)
O=C(Nc1ncc[nH]1)c1cc2c(Sc3ccc(Cl)cc3)cc(Cl)cc2[nH]1 [I-63] | > 100 µM | A (an affinity (R3/R0)>100%)
O=C(Nc1ccc(N2CCN(Cc3ccccc3)CC2)c(F)c1)c1cc2c(Sc3ccc(Cl)cc3Cl)cc(Cl)cc2[nH]1 [I-91, N-(4-(4-benzylpiperazin-1-yl)-3-fluorophenyl)-6-chloro-4-(2,4-dichlorophenylthio)-1H-indole-2-carboxamide] | 10 to 100 µM | B (an affinity (R3/R0) between 100% and 20%)
O=C(O)c1cc2c(SCc3ccc(Cl)cc3)cc(SCc3ccc(Cl)cc3)cc2[nH]1 [I-94, 4,6-bis(4-chlorobenzylthio)-1H-indole-2-carboxylic acid] | < 10 µM | B (an affinity (R3/R0) between 100% and 20%)
CN(C)C(=O)c1ccc(Cn2c(C(=O)O)cc3c(Br)cc(SCc4ccc(Cl)c(Cl)c4)cc32)cc1 [I-18] | > 100 µM | B (an affinity (R3/R0) between 100% and 20%)
O=C(O)c1cc2c(Cl)cc(Sc3ccc(Cl)c(Cl)c3)cc2[nH]1 [I-100, 4-chloro-6-(3,4-dichlorophenylthio)-1H-indole-2-carboxylic acid] | < 10 µM | B (an affinity (R3/R0) between 100% and 20%)
CN1CCC(NC(=O)c2cc3c(Sc4ccc(Cl)cc4)cc(Cl)cc3[nH]2)CC1 [I-80] | > 100 µM | B (an affinity (R3/R0) between 100% and 20%)
CN(C)C(=O)c1ccc(Cn2c(C(=O)O)cc3ccc(Sc4ccc(Cl)c(Cl)c4)c(Br)c32)cc1 [I-6, 7-bromo-6-(3,4-dichlorophenylthio)-1-(4-(dimethylcarbamoyl)benzyl)-1H-indole-2-carboxylic acid] | < 10 µM | B (an affinity (R3/R0) between 100% and 20%)
CN(C)C(=O)c1ccc(Cn2c(C(=O)O)cc3c(Br)cc(SCC4CCCCC4)cc32)cc1 [I-24, 4-bromo-6-(cyclohexylmethylthio)-1-(4-(dimethylcarbamoyl)benzyl)-1H-indole-2-carboxylic acid] | < 10 µM | B (an affinity (R3/R0) between 100% and 20%)

From US11339144B2 (Navitor Pharmaceuticals, Inc., priority 2017, dated 2022)
